Reference: ChEMBL document CHEMBL5346873, “Strategic modification of low-activity natural antimicrobial peptides confers antibacterial potential in vitro and in vivo” (Eur J Med Chem, 2023)

Assays:
Format in all cases: functional
Klebsiella pneumoniae [1] = test: Antibacterial activity against NDM Klebsiella pneumoniae incubated for 16 to 20 hrs; details: time 16-20 hrs
Vibrio vulnificus [2] = test: Antibacterial activity against Vibrio vulnificus 204 incubated for 16 to 20 hrs; details: time 16-20 hrs
Acinetobacter baumannii = test: Antibacterial activity against Acinetobacter baumannii
Pseudomonas aeruginosa [3] = test: Antibacterial activity against Pseudomonas aeruginosa incubated for 16 to 20 hrs; details: time 16-20 hrs
Klebsiella aerogenes [4] = test: Antibacterial activity against Enterobacter aerogenes incubated for 16 to 20 hrs; details: time 16-20 hrs
Escherichia coli [5] = test: Antibacterial activity against Escherichia coli incubated for 16 to 20 hrs; details: time 16-20 hrs
Streptococcus iniae [6] = test: Antibacterial activity against Streptococcus iniae incubated for 16 to 20 hrs; details: time 16-20 hrs
Streptococcus agalactiae [7] = test: Antibacterial activity against Streptococcus agalactiae incubated for 16 to 20 hrs; details: time 16-20 hrs
Vibrio vulnificus [8] = test: Antibacterial activity against Vibrio vulnificus 204 assessed as induction of resistance development by measuring fold increase in MIC measured after 15 passages
Salmonella typhimurium [9] = test: Antibacterial activity against Salmonella typhimurium incubated for 16 to 20 hrs; details: Salmonella enterica subsp. enterica serovar Typhimurium; time 16-20 hrs
Streptococcus agalactiae [10] = test: Bactericidal activity against Streptococcus agalactiae incubated overnight
Vibrio alginolyticus [11] = test: Antibacterial activity against Vibrio alginolyticus incubated for 16 to 20 hrs; details: time 16-20 hrs
Klebsiella oxytoca [12] = test: Antibacterial activity against Klebsiella oxytoca incubated for 16 to 20 hrs; details: time 16-20 hrs
Klebsiella aerogenes [13] = test: Bactericidal activity against Enterobacter aerogenes incubated overnight
Edwardsiella tarda [14] = test: Antibacterial activity against Edwardsiella tarda incubated for 16 to 20 hrs; details: time 16-20 hrs
Vibrio vulnificus [15] = test: Antibacterial activity against Vibrio vulnificus V2 incubated for 16 to 20 hrs; details: time 16-20 hrs
[16] = system: Staphylococcus haemolyticus; test: Antibacterial activity against Staphylococcus haemolyticus incubated for 16 to 20 hrs; details: time 16-20 hrs
Nakaseomyces glabratus [17] = test: Fungicidal activity against Candida glabrata incubated overnight
Vibrio vulnificus [18] = test: Antibacterial activity against Vibrio vulnificus V3 incubated for 16 to 20 hrs; details: time 16-20 hrs
Enterococcus faecium [19] = test: Bactericidal activity against Enterococcus faecium incubated overnight
Vibrio harveyi [20] = test: Antibacterial activity against Vibrio harveyi incubated for 16 to 20 hrs; details: time 16-20 hrs
Candida tropicalis [21] = test: Antifungal activity against Candida tropicalis incubated for 16 to 20 hrs; details: time 16-20 hrs
Vibrio anguillarum [22] = test: Antibacterial activity against Listonella anguillarum incubated for 16 to 20 hrs; details: time 16-20 hrs
Aeromonas hydrophila [23] = test: Antibacterial activity against Aeromonas hydrophila incubated for 16 to 20 hrs; details: time 16-20 hrs
Klebsiella pneumoniae [24] = test: Bactericidal activity against NDM Klebsiella pneumoniae incubated overnight
Escherichia coli [25] = test: Bactericidal activity against Escherichia coli incubated overnight
Salmonella enterica [26] = test: Bactericidal activity against Salmonella enterica incubated overnight
Streptococcus iniae [27] = test: Bactericidal activity against Streptococcus iniae incubated overnight
Vibrio vulnificus [28] = test: Bactericidal activity against Vibrio vulnificus 204 incubated overnight
[29] = system: Staphylococcus haemolyticus; test: Bactericidal activity against Staphylococcus haemolyticus incubated overnight
Pseudomonas aeruginosa [30] = test: Bactericidal activity against Pseudomonas aeruginosa incubated overnight
Vibrio vulnificus [31] = test: Antibacterial activity against Vibrio vulnificus V1 incubated for 16 to 20 hrs; details: time 16-20 hrs
Candida tropicalis [32] = test: Fungicidal activity against Candida tropicalis incubated overnight
Vibrio vulnificus [33] = test: Bactericidal activity against Vibrio vulnificus V1 incubated overnight
Vibrio alginolyticus [34] = test: Bactericidal activity against Vibrio alginolyticus incubated overnight
Vibrio vulnificus [35] = test: Bactericidal activity against Vibrio vulnificus V2 incubated overnight
Vibrio harveyi [36] = test: Bactericidal activity against Vibrio harveyi incubated overnight
Salmonella typhimurium [37] = test: Bactericidal activity against Salmonella typhimurium incubated overnight; details: Salmonella enterica subsp. enterica serovar Typhimurium
Aeromonas hydrophila [38] = test: Bactericidal activity against Aeromonas hydrophila incubated overnight
Vibrio anguillarum [39] = test: Bactericidal activity against Listonella anguillarum incubated overnight
Klebsiella oxytoca [40] = test: Bactericidal activity against Klebsiella oxytoca incubated overnight
Enterococcus faecium [41] = test: Antibacterial activity against Enterococcus faecium incubated for 16 to 20 hrs; details: time 16-20 hrs
Salmonella enterica [42] = test: Antibacterial activity against Salmonella enterica incubated for 16 to 20 hrs; details: time 16-20 hrs
Enterococcus faecalis [43] = test: Bactericidal activity against Enterococcus faecalis incubated overnight
Edwardsiella tarda [44] = test: Bactericidal activity against Edwardsiella tarda incubated overnight
Vibrio vulnificus [45] = test: Bactericidal activity against Vibrio vulnificus V3 incubated overnight
Nakaseomyces glabratus [46] = test: Antifungal activity against Candida glabrata incubated for 16 to 20 hrs; details: time 16-20 hrs
Enterococcus faecalis [47] = test: Antibacterial activity against Enterococcus faecalis incubated for 16 to 20 hrs; details: time 16-20 hrs

C[C@@H](O)[C@H]1C(=O)N2C(C(=O)O)=C(S[C@@H]3CN[C@H](C(=O)N(C)C)C3)[C@H](C)[C@H]12 [MEROPENEM]
200 µg/mL: MIC (Klebsiella pneumoniae [1])
0.024 µg/mL: MIC (Vibrio vulnificus [2]) | MIC (Klebsiella aerogenes [4]) | MIC (Streptococcus agalactiae [7])
0.012 µg/mL: MIC (Escherichia coli [5])
0.39 µg/mL: MIC (Acinetobacter baumannii) | MIC (Pseudomonas aeruginosa [3]) | MIC (Streptococcus iniae [6])

CN(C)[C@@H]1C(O)=C(C(N)=O)C(=O)[C@@]2(O)C(O)=C3C(=O)c4c(O)cccc4[C@@](C)(O)[C@H]3C[C@@H]12 [TETRACYCLINE]
128: fold change (FC) (Vibrio vulnificus [8])

COLISTIN
< 1.56 µg/mL: MIC (Salmonella typhimurium [9]) | MIC (Klebsiella pneumoniae [1]) | MBC (Klebsiella aerogenes [13]) | MIC (Vibrio anguillarum [22]) | MBC (Klebsiella pneumoniae [24]) | MBC (Escherichia coli [25]) | MBC (Salmonella enterica [26]) | MIC (Pseudomonas aeruginosa [3]) | MIC (Klebsiella aerogenes [4]) | MBC (Pseudomonas aeruginosa [30]) | MIC (Escherichia coli [5]) | MBC (Salmonella typhimurium [37]) | MIC (Salmonella enterica [42]) | MIC (Enterococcus faecalis [47])
16: fold change (FC) (Vibrio vulnificus [8])
50 µg/mL: MBC (Streptococcus agalactiae [10]) | MIC (Vibrio vulnificus [15]) | MIC (Vibrio vulnificus [18]) | MIC (Vibrio vulnificus [31]) | MBC (Vibrio vulnificus [33]) | MBC (Vibrio vulnificus [35]) | MBC (Enterococcus faecalis [43]) | MIC (Streptococcus agalactiae [7]) | MBC (Vibrio vulnificus [45])
25 µg/mL: MIC (Vibrio vulnificus [2]) | MBC (Streptococcus iniae [27])
> 100 µg/mL: MFC (Nakaseomyces glabratus [17]) | MBC (Enterococcus faecium [19]) | MIC (Vibrio harveyi [20]) | MBC (Vibrio vulnificus [28]) | MBC (Vibrio harveyi [36]) | MBC (Aeromonas hydrophila [38]) | MIC (Enterococcus faecium [41]) | MIC (Nakaseomyces glabratus [46])
100 µg/mL: MIC (Aeromonas hydrophila [23])
6.25 µg/mL: MIC (Edwardsiella tarda [14]) | MBC (Vibrio anguillarum [39]) | MBC (Edwardsiella tarda [44])
3.12 µg/mL: MIC (Vibrio alginolyticus [11]) | MIC [16] | MBC [29] | MBC (Vibrio alginolyticus [34])
12.5 µg/mL: MIC (Klebsiella oxytoca [12]) | MIC (Candida tropicalis [21]) | MFC (Candida tropicalis [32]) | MIC (Streptococcus iniae [6]) | MBC (Klebsiella oxytoca [40])
